Measured values: publication PMC9029893 (International Journal of Molecular Sciences, 2022)

Assays:
[1] = test system: coagulation in human citrate plasma; assay: Coagulation assay (endogenous thrombin generation); format: biochemical
Protocol: These reagents induce a feedback reaction leading to the generation of endogenous thrombin, and coagulation. The other experimental conditions were the same as for the CL-test (Section 4.12).
The obtained curves were analyzed using dedicated software that estimates the following parameters: TGt—thrombin generation time (s), Fmax—maximum clotting (%T), Tf—plasma clotting time (s), Fvo—initial plasma clotting velocity (%T/min), Sf—area under the clot formation curve (%Txmin), Tc—clot stabilization time (s), S—area under the curve of coagulation (%Txmin).

HUVEC cells [2] = assay: HUVEC migration, wound-healing assay (JuLI Stage); format: cell-based, human
Protocol: The effects of compounds 1–5 on HUVEC migration were determined using the JuLI™ Stage system (NanoEntek, Seoul, Korea): a real-time cell history recorder allowing for live cell imaging and analysis. The procedure for the migration experiments has been published elsewhere in more detail. Concisely, HUVECs were seeded at a density of 10,000 cells per well on 96-well plates and incubated at standard conditions for 24 h. Following this, a wound was made with a scratcher (NanoEntek, Seoul, Korea). The cells were then rinsed with 100 μL of fresh EGM2 medium, and treated with biguanides 1–5 at the concentrations of 0.3 and 1.0 mM. The cells were incubated and monitored continuously every 10 min for 36 h at 37 °C, 5% CO2. Analysis of obtained images of cell migration, and measurements of the width of the scratch area were performed using dedicated software (NanoEntek, Seoul, Korea). The results were presented as mean ± SD, n = 4–8. The CV for the method was estimated as 14.2–24.4%, depending on the time point (n = 8).

HUVEC cells [3] = assay: Glucose utilization assay (2-NBDG uptake); format: cell-based, human; settings: 24 h, then insulin and 2-NBDG
Protocol: HUVEC were seeded at a density of 20,000 cells per well in 48-well plates, and were cultured in standard conditions for 24 h (medium EGM-2; volume 0.2 mL). Following this, compounds 1–8 were added at concentrations of 0.1 and 0.3 mM, and the HUVECs were incubated for another 24 h. Cells treated with ᴅ-glucose (final concentration in a sample 0.1 mM) were used as positive controls. On the following day, the cells were rinsed with PBS (Biomed Lublin, Lublin, Poland) and cultured for two hours in glucose-free DMEM medium supplemented with 1% BSA (bovine serum albumin, Sigma, St. Louis, MO, USA). Then, the cells were co-treated with insulin (final concentration 0.0001 mM) for 30 min. Afterwards, the medium was discarded and the cells were treated with 2-NBDG (final concentration 0.05 mM) for 30 min, followed by removal of the solutions of each well. The cells were washed twice with 100 µL PBS, and lysed using 1% Triton X-100 solution in PBS. The fluorescence was recorded using a microplate reader (Biotek, Instruments, Winooski, VT, USA) at 480/530 nm.
The concentration of intracellular 2-NBDG was calculated using a calibration curve obtained using 2-NBDG at concentrations ranging from 0.0001 to 0.025 mM in lysis buffer. The results are presented as mean ± SD, n = 4–6. The coefficient of variation for the assay was calculated (CV = 2.2%, n = 8).

antithrombin III (AT) = antithrombin III (AT) (Homo sapiens, UniProt P01008); assay: Activity of antithrombin III (AT); format: biochemical
Chain of antithrombin III (AT) (P01008 33-464): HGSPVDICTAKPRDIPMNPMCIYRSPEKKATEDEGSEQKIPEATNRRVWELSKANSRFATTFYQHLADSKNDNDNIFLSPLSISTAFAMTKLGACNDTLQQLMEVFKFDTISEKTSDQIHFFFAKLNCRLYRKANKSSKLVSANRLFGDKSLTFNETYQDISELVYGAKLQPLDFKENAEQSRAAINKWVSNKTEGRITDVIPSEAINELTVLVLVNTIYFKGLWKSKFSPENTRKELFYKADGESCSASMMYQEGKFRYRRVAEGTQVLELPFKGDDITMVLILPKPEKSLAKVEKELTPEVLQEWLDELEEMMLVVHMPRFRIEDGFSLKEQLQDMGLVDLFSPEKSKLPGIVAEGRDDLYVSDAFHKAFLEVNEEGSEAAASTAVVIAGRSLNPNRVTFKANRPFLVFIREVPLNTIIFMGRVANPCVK
Protocol: The activity of AT in human plasma was estimated spectrophotometrically using a diagnostic laboratory method. […] In the control samples, 10 μL of distilled water and methanol (1:1) was used. The reaction was initiated by the addition of a chromogenic substrate dissolved in water for injection; as a result, p-nitroaniline was released proportionally to the level of AT. The evaluation of AT level was performed on the basis of a calibration curve performed on calibrator diluted in the range 1:30–1:120 (λ = 405 nm) by the coagulometer program (CoagChrom-3003 Bio Ksel, Grudziadz, Poland). The coefficient of variability for the method (CV) was 2.69%, and the reference range was 80%–130%.

HUVEC cells [4] = assay: HUVEC integrity in RTCA-DP system (normalized cell index); format: cell-based, human
Protocol: The effects of sulfonamides 1–8 on the integrity and barrier properties of HUVEC were examined in real-time using a cell electric impedance monitoring system (Real-Time Cell Analyzer; Roche & ACEA Biosciences, Santa Clara, CA, USA), which is based on tracking electrical impedance signals. Any changes in cell status, adhesion, and morphology are expressed by parameter Cell Index (CI). The experimental protocol has been described previously. Briefly, the cells were seeded at a density of 15,000 cells per well on E-16 plates (Roche & ACEA Biosciences, Santa Clara, CA, USA), and cultured until the cells achieved plateau phase. Then, the medium was discarded from each well, and the solutions of the test compounds dissolved in cell culturing medium (100 μL) or pure medium (100 μL, control) were added. The measurements were then carried out for 48 h. The results are presented as mean ± SD of ‘normalized cell index’ (nCI), which is calculated by the division of a CI value at a certain time point by the CI value at a reference time point. The experiments were conducted in multiplicate (n = 4–6). The method was validated and the coefficient of variability (CV) was calculated as 9.17%–15.2%, depending on the measured time point (n = 6).

## CCCCS(=O)(=O)NC(N)=NC(=N)N(C)C [Compound 1]
[1]; 0.06 mM
  Fmax—maximum clotting: 76.30 ± 7.79 %T
  Fvo—initial plasma clotting velocity: 97.22 ± 36.13 %T/min
  Sc—area under the curve of a stable clot formation: 458.27 ± 113.77 %T x min
  Sf—area under the clot formation curve: 140.16 ± 31.01 %T x min
  S—overall potential of clot formation: 1449.09 ± 154.09 %T x min
  TGt—thrombin generation time: 161.33 ± 35.27 s
  Tf—plasma clotting time: 155.67 ± 45.29 s
[1]; 0.3 mM
  Fmax—maximum clotting: 82.67 ± 4.79 %T
  Fvo—initial plasma clotting velocity: 117.65 ± 36.38 %T/min
  Sc—area under the curve of a stable clot formation: 544.47 ± 81.13 %T x min
  Sf—area under the clot formation curve: 104.53 ± 38.44 %T x min
  S—overall potential of clot formation: 1586.01 ± 103.04 %T x min
  TGt—thrombin generation time: 162.33 ± 37.96 s
  Tf—plasma clotting time: 109.63 ± 40.06 s
[1]; 0.6 mM
  Fmax—maximum clotting: 75.62 ± 9.88 %T
  Fvo—initial plasma clotting velocity: 96.52 ± 20.91 %T/min
  Sc—area under the curve of a stable clot formation: 444.40 ± 91.71 %T x min
  Sf—area under the clot formation curve: 119.01 ± 48.07 %T x min
  S—overall potential of clot formation: 1442.42 ± 198.39 %T x min
  TGt—thrombin generation time: 176.83 ± 57.02 s
  Tf—plasma clotting time: 138.77 ± 59.29 s
[1]; 1.5 mM
  Fmax—maximum clotting: 74.15 ± 7.83 %T
  Fvo—initial plasma clotting velocity: 107.77 ± 35.80 %T/min
  Sc—area under the curve of a stable clot formation: 452.95 ± 102.22 %T x min
  Sf—area under the clot formation curve: 114.89 ± 64.82 %T x min
  S—overall potential of clot formation: 1435.77 ± 143.80 %T x min
  TGt—thrombin generation time: 172.00 ± 43.56 s
  Tf—plasma clotting time: 135.33 ± 75.79 s
HUVEC cells [2]; 0.3 mM, 6 hours
  wound width: 491.9 ± 31.7 µm
HUVEC cells [2]; 0.3 mM, 12 hours
  wound width: 421.2 ± 5.9 µm
HUVEC cells [2]; 0.3 mM, 18 hours
  wound width: 365.2 ± 35.8 µm
HUVEC cells [2]; 0.3 mM, 24 hours
  wound width: 336.7 ± 39.0 µm
HUVEC cells [2]; 0.3 mM, Start
  wound width: 605.8 ± 38.63 µm
HUVEC cells [2]; 1.0 mM, 6 hours
  wound width: 461.9 ± 33.4 µm
HUVEC cells [2]; 1.0 mM, 12 hours
  wound width: 375.1 ± 29.9 µm
HUVEC cells [2]; 1.0 mM, 18 hours
  wound width: 344.4 ± 32.8 µm
HUVEC cells [2]; 1.0 mM, 24 hours
  wound width: 337.5 ± 47.3 µm
HUVEC cells [2]; 1.0 mM, Start
  wound width: 589.1 ± 36.3 µm
HUVEC cells [3]; 0.1 mM
  Glucose uptake (intracellular 2-NBDG): 0.0134 ± 0.0004 mM
HUVEC cells [3]; 0.3 mM
  Glucose uptake (intracellular 2-NBDG): 0.0142 ± 0.0007 mM
Antithrombin III (AT); 0.06 mM
  activity of AT III: 110.25 ± 8.34%
Antithrombin III (AT); 0.3 mM
  activity of AT III: 115.25 ± 6.18%
Antithrombin III (AT); 0.6 mM
  activity of AT III: 120.00 ± 2.71%
Antithrombin III (AT); 1.5 mM
  activity of AT III: 123.00 ± 5.2%
HUVEC cells [4]; 0.3 mM, 3 hours
  normalized Cell Index (nCI): 0.832 ± 0.091
HUVEC cells [4]; 0.3 mM, 6 hours
  normalized Cell Index (nCI): 0.981 ± 0.085
HUVEC cells [4]; 0.3 mM, 12 hours
  normalized Cell Index (nCI): 1.177 ± 0.149
HUVEC cells [4]; 0.3 mM, 24 hours
  normalized Cell Index (nCI): 1.207 ± 0.149
HUVEC cells [4]; 0.3 mM, 36 hours
  normalized Cell Index (nCI): 0.875 ± 0.090
HUVEC cells [4]; 1.0 mM, 3 hours
  normalized Cell Index (nCI): 0.440 ± 0.032
HUVEC cells [4]; 1.0 mM, 6 hours
  normalized Cell Index (nCI): 0.676 ± 0.062
HUVEC cells [4]; 1.0 mM, 12 hours
  normalized Cell Index (nCI): 0.791 ± 0.067
HUVEC cells [4]; 1.0 mM, 24 hours
  normalized Cell Index (nCI): 0.940 ± 0.077
HUVEC cells [4]; 1.0 mM, 36 hours
  normalized Cell Index (nCI): 0.858 ± 0.054
